{"source": "patent US12565467B2", "about": "“Compounds, compositions, and methods for the treatment of inflammatory, degenerative, and neurodegenerative diseases” (Board of Supervisors of Louisiana State University and …, priority 2015, dated 2026)", "key": {"[1]": {"test_system": "human retinal pigment epithelial (RPE) cells deficient in 15-LOX-D1", "test": "Oxidative stress (OS) induced apoptosis / cell death in 15-LOX-1-deficient human RPE cells", "type": "cell-based", "description": "(§1) FIG. 4. (A) Cytoprotective effects of NPD1 like compounds on OS induced apoptosis. The results shown in this figure compare the cytoprotective capacities of long chain polyunsaturated fatty acids (VLC-PUFA), elovanoids ELV1 and ELV2, and neuroprotectin D1 (NPD1) in human retinal pigment epithelial (RPE) cells deficient in 15-LOX-D1 by measuring the protection of cell deaths induced by oxidative stress (OS) by these compounds. […] (B) Elovanoid precursors protect human retinal pigment epithelial cells deficient in 15-LOX-1, unlike DHA, from oxidative stress conditions.\n(§2) FIG. 5. (A) Effect of PD146176 on VLC-PUFA-inhibited apoptosis induced by OS in ARPE-19 cells. […] It is evident that 32:6 and 34:6 LCAF were able to induce a substantial amount (55 and 48% respectively) of neuroprotection compared to PD 146176 (22%) when the stressed cells were treated with 5 μm of 15-LOX-D1 inhibitor. It can be concluded that since PD146176 is the inhibitor of 15-lipooxygenase enzyme, it might be protecting the stressed RPE cells by accumulating neuroprotective agents inside the cells. (B) Comparison of cytoprotective capacities of NPD1, C32:6 and C34:6 VLC-PUFA on oxidative stress-induced apoptosis in 15-LOX-1 cells. Shown here is the comparison of neuroprotection in a 15-LOX-1-deficient cell line under oxidative stress with 32:6 and 34:6 VLC-PUFA along with NPD1. 32:6 and 34:6 LCAF were able to induce neuroprotection (45% and 40% respectively), as compared to oxidative stress (90%) under this condition. (C) Concentration dependent cytoprotection by C32:6 and C34:6 VLC-PUFA in oxidative-stress induced ARPE-19 cells. A concentration (50-500 nM) kinetic of cytoprotection induced by LCAF 32:6 and 34:6 in RPE cell culture under OS was shown here. […] We decided to use 250 nM concentrations of 32:6 and 34:6 LCAF in subsequent experiments. (D) Selected images of alive and dead cells from this study (control, OS, treatment with C32:6).\nas §1, with “Evidence of cytoprotection by 32.6 and 34.6 VLC-PUFA in oxidative-stress induced ARPE-19 cells as detailed in (FIG. 4): (A) Cytoprotective” for “FIG. 4. (A) Cytoprotective”, “capacities of very long chain” for “capacities of long chain”\nFIG. 5—(A) Effect of PD146176 on VLC-PUFA inhibited apoptosis induced by OS in ARPE-19 cells. […] It is evident that 32:6 and 34:6 LCAF were able to induce a substantial amount (55 and 48% respectively) of neuroprotection compared to PD 146176 (22%) when the stressed cells were treated with 5 μm of 15-LOX-D1 inhibitor. It can be concluded that since PD146176 is the inhibitor of 15-lipooxygenase enzyme, it might be protecting the stressed RPE cells by accumulating neuroprotective agents inside the cells. (B) Comparison of cytoprotective capacities of NPD1, C32:6 and C34:6 VLC-PUFA on oxidative stress-induced apoptosis in 15-LOX-1 cells. Shown here is the comparison of neuroprotection in a 15-LOX-1-deficient cell line under oxidative stress with 32:6 and 34:6 VLC-PUFA along with NPD1. 32:6 and 34:6 VLC-PUFA were able to induce neuroprotection (45% and 40% respectively), as compared to oxidative stress (90%) under this condition. (C) Concentration dependent cytoprotection by C32:6 and C34:6 VLC-PUFA in oxidative-stress induced ARPE-19 cells. A concentration (50-500 nM) kinetic of cytoprotection induced by VLC-PUFA 32:6 and 34:6 in RPE cell culture under OS was shown here. […] We decided to use 250 nM concentrations of 32:6 and 34:6 VLC-PUFA in subsequent experiments. […]"}, "[2]": {"test_system": "ARPE-19 cells", "test": "Oxidative stress induced apoptosis / cell death in ARPE-19 cells", "type": "cell-based, human", "settings": "for concentration dependent cytoprotection (FIG. 5C): ARPE-19 under OS", "protocol": "as §2\nFIG. 5—(A) Effect of PD146176 on VLC-PUFA inhibited apoptosis induced by OS in ARPE-19 cells. […] It is evident that 32:6 and 34:6 LCAF were able to induce a substantial amount (55 and 48% respectively) of neuroprotection compared to PD 146176 (22%) when the stressed cells were treated with 5 μm of 15-LOX-D1 inhibitor. It can be concluded that since PD146176 is the inhibitor of 15-lipooxygenase enzyme, it might be protecting the stressed RPE cells by accumulating neuroprotective agents inside the cells. (B) Comparison of cytoprotective capacities of NPD1, C32:6 and C34:6 VLC-PUFA on oxidative stress-induced apoptosis in 15-LOX-1 cells. Shown here is the comparison of neuroprotection in a 15-LOX-1-deficient cell line under oxidative stress with 32:6 and 34:6 VLC-PUFA along with NPD1. 32:6 and 34:6 VLC-PUFA were able to induce neuroprotection (45% and 40% respectively), as compared to oxidative stress (90%) under this condition. (C) Concentration dependent cytoprotection by C32:6 and C34:6 VLC-PUFA in oxidative-stress induced ARPE-19 cells. A concentration (50-500 nM) kinetic of cytoprotection induced by VLC-PUFA 32:6 and 34:6 in RPE cell culture under OS was shown here. […] We decided to use 250 nM concentrations of 32:6 and 34:6 VLC-PUFA in subsequent experiments. (D) Selected images of alive and dead cells from this study (control, OS, treatment with C32:6)."}}}
{"smiles": "CC/C=C\\C/C=C\\C/C=C\\C/C=C\\C/C=C\\C/C=C\\CCCCCCCCCCCCCCC(=O)O", "note": "[C34:6]", "values": [{"measurement": "neuroprotection (FIG. 5B)", "setting": "[1]; 15-LOX-1-deficient cell line under oxidative stress, compared to oxidative stress (90%)", "result": 40, "unit": "%"}, {"measurement": "protection against cell death under oxidative stress conditions (FIG. 4B)", "setting": "[1]; 15-LOX-D1 cells under oxidative stress", "result": "protect against cell death"}, {"measurement": "concentration dependent cytoprotection (FIG. 5C)", "setting": "[2]; 250 nM", "result": "very good intermediate effect"}, {"measurement": "concentration dependent cytoprotection (FIG. 5C)", "setting": "[2]; 500 nM", "result": "maximum effect"}, {"measurement": "protection against OS in RPE cells (summary, FIGS. 4-10)", "setting": "[2]; RPE cells", "result": "protective against OS"}, {"measurement": "concentration dependent cytoprotection (FIG. 5C)", "setting": "[2]; starting from 50 nM", "result": "gradual decrease of cell deaths"}, {"measurement": "neuroprotection (FIG. 5A)", "setting": "[2]; stressed ARPE-19 cells treated with 5 μm of 15-LOX-D1 inhibitor PD146176", "result": 48, "unit": "%"}]}
{"smiles": "CC/C=C\\C[C@H](O)\\C=C/C=C/C=C/[C@H](O)C/C=C\\C/C=C\\CCCCCCCCCCCCCCC(=O)O", "note": "[ELV2, (16Z,19Z,22R,23E,25E,27Z,29S,31Z)-22,29-dihydroxytetratriaconta-16,19,23,25,27,31-hexaenoic acid]", "values": [{"measurement": "activity against OS relative to the related VLC-PUFA (FIG. 4)", "setting": "[1]; as sodium salts or methyl esters", "result": "more potent activity against OS than the related VLC-PUFA"}]}
